Measurements published in publication PMC9108603, “Microbial Metabolite Inspired β‐Peptide Polymers Displaying Potent and Selective Antifungal Activity” (Advanced Science, 2022).
Values after ≈ are worked out from the molar mass of the structure shown. Like-named read-outs stand apart in the source and are kept apart here.

Columns and labels:
human red blood cells = assay: Hemolysis assay; conditions: human RBCs in TBS pH 7.2, 37 °C, 1 h, OD 405 nm, 2000 to 15.6 μg/mL, Triton X-100 as 100%
Description: (§1) aforementioned antifungal assay. Gram-positive bacteria ( S. aureus ATCC 6538, S.
The positive controls used in
Then, 100 μL of the RBC working
Molecular Devices Emax precision microplate reader. Measurements were performed in duplicate and repeated on three different days. The percentage of hemolysis at each polymer […]
and plotted against polymer concentration to give the dose-response curves for hemolysis for each polymer. The HC 10 value for each polymer was defined as the polymer concentration to cause 10% lysis of RBCs. All measurements were performed with three replicates.
Cytotoxicity assay. Cytotoxicity tests were performed on NIH 3T3 fibroblast cells, endothelial cells (HUVEC), macrophage (RAW264.7), liver cells (LO2), kidney cells (COS7) and enterocyte (NCM-460) using MTT assay. Cells were cultured in DMEM supplemented with 10% FBS, 5% penicillin, 2 mM L-glutamine and incubated at 37 °C in 5% CO 2. […]
(§2) concentrations ranging from 800 to 1.6 μg/mL. […] Then 85 µL of the supernatant from each well was transferred to the corresponding well in a new plate, followed by absorbance measurement at 570 nm on a plate reader. […] The percentage of cell viability in each test well, relative to the positive control (which defines 100%) w as calculated from [% fibroblast growth = (A polymer – Ablank)/(Acontrol

various mammalian cells = assay: Cytotoxicity, MTT assay, summary over cell types; format: cell-based; conditions: NIH 3T3, HUVEC, RAW264.7, LO2, COS7, NCM‐460, 24 h
Description: (§3) Cytotoxicity assay. Cytotoxicity tests were performed on NIH 3T3 fibroblast cells, endothelial cells (HUVEC), macrophage (RAW264.7), liver cells (LO2), kidney cells (COS7) and enterocyte (NCM-460) using MTT assay. Cells were cultured in DMEM supplemented with 10% FBS, 5% penicillin, 2 mM L-glutamine and incubated at 37 °C in 5% CO 2. Cells were harvested and seeded onto 96-well plates at a density of 1.0 × 10^4 cells per well and incubated for 24 h. On each plate, wells containing growth medium only and cells in growth medium without any antifungal agent were used as the negative and positive control, […]
as §2, with “μg/mL. Medium in each cell-containing well was replaced with 100 μL of the corresponding polymer solution, and the plates were incubated at 37 °C for 24 h. Then, the solution in each well was switched to 100 µL MTT solution (1 mg/mL) and the plate was incubated in the dark at 37 °C for 4 h.” for “μg/mL.”, “Ablank)/(Acontrol – A blank) × 100]. […]” for “Ablank)/(Acontrol”

E. coli ATCC 25922 = assay: Antibacterial MIC test; format: cell-based; conditions: 1.0 × 10^5 CFU/mL in MH medium
Description: as §1

A. Baumannii ATCC 747 = assay: Antibacterial MIC test; format: cell-based; conditions: 1.0 × 10^5 CFU/mL in MH medium
Description: as §1

[1] = test system: K. pneumoniae ATCC 700603; assay: Antibacterial MIC test; format: cell-based; conditions: 1.0 × 10^5 CFU/mL in MH medium
Description: as §1

[2] = test system: Gram‐positive and Gram‐negative bacteria; assay: Antibacterial MIC test, summary over six bacteria; format: cell-based; conditions: S. aureus, S. epidermidis, B. subtilis, E. coli, A. baumannii, K. pneumoniae
Description: as §1

B. subtilis BR151 = assay: Antibacterial MIC test; format: cell-based; conditions: 1.0 × 10^5 CFU/mL in MH medium
Description: as §1

[3] = test system: S. epidermidis ATCC 49134; assay: Antibacterial MIC test; format: cell-based; conditions: 1.0 × 10^5 CFU/mL in MH medium
Description: as §1

S. aureus ATCC 6538 = assay: Antibacterial MIC test; format: cell-based; conditions: 1.0 × 10^5 CFU/mL in MH medium
Description: as §1

C. albicans [4] = assay: MIC assay (in vitro antifungal assay); format: cell-based, Candida albicans
Description: (§4) In vitro antifungal assays. The MIC assays for C. albicans (K1, SC5314, Gu5, ATCC90028, R01, R02, R03 and R04 strains) and C. neoformans (H99, MYA737 and JEC21 strains) were conducted according to a previously described protocol. The cultured fungal cells were collected at 2.5 × 10^3 CFU/mL in RPMI 1640 medium to give the working suspension. Two- […]
(§5) Then 50 µL of the cell suspension was added to each well. Wells containing cells in RPMI without any polymer or antifungal drug were used as drug-free controls, and wells containing RPMI medium only were used as cell-free controls. The plate was gently stirred for 10 seconds and then incubated at 30 °C. After C. albicans and C. neoformans cells were incubated for 24 h and 48 h, respectively, fungal cell growth was checked visually. […]

C. albicans [5] = assay: MFC assay, plating after the MIC test; format: cell-based; conditions: Candida albicans; further: kills > 99.9%
Description: as §4
as §5, with “visually. The MIC values were identified as the lowest concentration” for “visually.”
(§6) The MFC assay for Candida and Cryptococcus was conducted after the MIC test.
(§7) An aliquot of 3 µL premixed suspension from each well was plated on the yeast extract-peptone-dextrose (YPD) agar. The plates were incubated at 30 °C for 24 h and 48 h, respectively, for C. albicans cells and C. neoformans cells. Then the plate was inspected visually for colony formation. […]

C. neoformans [6] = assay: MFC assay, plating after the MIC test; format: cell-based; conditions: Cryptococcus neoformans, 48 h; further: kills > 99.9%
Description: as §4
as §5, with “visually. The MIC values were identified as the lowest concentration” for “visually.”
as §6, §7

C. neoformans [7] = assay: MIC assay (in vitro antifungal assay); format: cell-based; conditions: Cryptococcus neoformans, 48 h
Description: as §4
as §5, with “plate to give 50 µL compound solution in each well. Then” for “Then”

C. albicans (R02 strain) = assay: microbe, parasite or virus in culture; format: cell-based, Candida albicans; conditions: for MIC50: Candida albicans
Description: Drug resistance studies. Drug resistance was induced by treating the C. albicans (R02 strain) repeatedly with antifungal agents. […]
albicans were tested for 30 passages of growth, which is long enough and adopted by many studies. C. albicans exposed to the 1/2 MIC concentration at the particular passage were re-grown to a logarithmic growth phrase and re-used for the subsequent passage’s MIC measurement for the same antifungal agent. Drug-resistant behavior of C. albicans was evaluated by recording the changes in the MIC compared to the original passage. All measurements were performed in duplicates. […]

[8] = test system: endothelial cells (HUVEC); assay: Cytotoxicity, MTT assay; format: cell-based, human; conditions: 24 h, 37 °C, 800 to 1.6 μg/mL, 50% cell viability
Description: as §3
as §2, with “μg/mL. Medium in each cell-containing well was replaced with 100 μL of the corresponding polymer solution, and the plates were incubated at 37 °C for 24 h. Then, the solution in each well was switched to 100 µL MTT solution (1 mg/mL) and the plate was incubated in the dark at 37 °C for 4 h.” for “μg/mL.”, “Ablank)/(Acontrol – A blank) × 100]. […]” for “Ablank)/(Acontrol”

**Q.** What does the source list for poly(DL‐diaminopropionic acid) [PDAP5]?
**A.** HC10 (concentration to cause 10% hemolysis) (human red blood cells): 1000 µg/mL; IC50 over six mammalian cell types (range) (various mammalian cells): 340 to 800 µg/mL

**Q.** Which results are given for polymyxin B?
**A.** MIC E. coli (E. coli ATCC 25922): 0.2 µg/mL; MIC A. baumannii (A. Baumannii ATCC 747): 0.2 µg/mL; MIC K. pneumoniae [1]: 0.8 µg/mL

**Q.** How did the “MIC against the six bacteria (summary)” value [2] turn out when ε‐poly‐lysine [ε-PL] was run?
**A.** 1.6 to 6.3 µg/mL

**Q.** What about the “MIC B. subtilis” value (B. subtilis BR151) of the same molecule?
**A.** 1.6 µg/mL

**Q.** What about the “MIC E. coli” value (E. coli ATCC 25922) of the same molecule?
**A.** 6.3 µg/mL

**Q.** What about the “MIC A. baumannii” value (A. Baumannii ATCC 747) of the same molecule?
**A.** 6.3 µg/mL

**Q.** And the “MIC S. epidermidis” value [3]?
**A.** 3.1 µg/mL

**Q.** What about the “MIC K. pneumoniae” value [1] of the same molecule?
**A.** 6.3 µg/mL

**Q.** And the “MIC S. aureus” value (S. aureus ATCC 6538)?
**A.** 3.1 µg/mL

**Q.** What about the “Effect of increasing K+ on antifungal activity” value (C. albicans [4]; K+ up to 20 × 10^−3 M, C. albicans K1) of the same molecule?
**A.** didn't affect

**Q.** What about the “MIC C. albicans K1, standard MIC test in RPMI 1640” value (C. albicans [4]; Na+ 103 mM, K+ 5.4 mM) of the same molecule?
**A.** 400 µg/mL

**Q.** And the “MIC C. albicans K1, physiological salt concentration” value (C. albicans [4]; Na+ 150 mM, K+ 5.4 mM)?
**A.** 1600 μg/mL

**Q.** What about the “MIC C. albicans K1, Na+ ↑” value (C. albicans [4]; Na+ 200 mM, K+ 5.4 mM) of the same molecule?
**A.** > 1600 µg/mL

**Q.** What about the “MIC against C. albicans (Figure 1a)” value (C. albicans [4]; approximate value printed in the design figure) of the same molecule?
**A.** ~ 400 μg/mL

**Q.** And the “MIC against three strains of C. albicans (range)” value (C. albicans [4]; range over three strains, Figure 2d)?
**A.** 200 to 400 µg/mL

**Q.** With `OC(Cn1cncn1)(Cn1cncn1)c1ccc(F)cc1F` [fluconazole] as the molecule, how does the MIC50 (C. albicans [4]; Candida albicans, 24 h, read-out: MIC50 (used for fluconazole) C. albicans Gu5) read?
**A.** 200 µg/mL (≈ 653 µM)

**Q.** And the MIC50 (C. albicans [4]; Candida albicans, 24 h, read-out: MIC50 (used for fluconazole) C. albicans K1)?
**A.** 0.4 µg/mL (≈ 1.31 µM)

**Q.** And the MIC50 (C. albicans [4]; Candida albicans, 24 h, read-out: MIC50 (used for fluconazole) C. albicans R01)?
**A.** 0.4 µg/mL (≈ 1.31 µM)

**Q.** What about the MIC50 (C. albicans [4]; Candida albicans, 24 h, read-out: MIC50 (used for fluconazole) C. albicans R02) of the same molecule?
**A.** 0.4 µg/mL (≈ 1.31 µM)

**Q.** What about the MIC50 (C. albicans [4]; Candida albicans, 24 h, read-out: MIC50 (used for fluconazole) C. albicans R03) of the same molecule?
**A.** 0.2 µg/mL (≈ 0.653 µM)

**Q.** What about the MIC50 (C. albicans [4]; Candida albicans, 24 h, read-out: MIC50 (used for fluconazole) C. albicans R04) of the same molecule?
**A.** 0.2 µg/mL (≈ 0.653 µM)

**Q.** And the MIC50 (C. albicans [4]; Candida albicans, ATCC90028, 24 h, read-out: MIC50 (used for fluconazole) C. albicans ATCC90028)?
**A.** 0.2 µg/mL (≈ 0.653 µM)

**Q.** And the MIC50 (C. albicans [4]; Candida albicans, SC5314, 24 h, read-out: MIC50 (used for fluconazole) C. albicans SC5314)?
**A.** 50 µg/mL (≈ 163 µM)

**Q.** What about the MIC (C. albicans [4]; Candida albicans, read-out: MIC of fluconazole (complete inhibition), all strains of C. albicans) of the same molecule?
**A.** > 200 µg/mL

**Q.** And the MFC (C. albicans [5]; 24 h, read-out: MFC C. albicans Gu5)?
**A.** > 200 µg/mL

**Q.** What about the MFC (C. albicans [5]; 24 h, read-out: MFC C. albicans K1) of the same molecule?
**A.** > 200 µg/mL

**Q.** And the MFC (C. albicans [5]; 24 h, read-out: MFC C. albicans R01)?
**A.** > 200 µg/mL

**Q.** What about the MFC (C. albicans [5]; 24 h, read-out: MFC C. albicans R02) of the same molecule?
**A.** > 200 µg/mL

**Q.** What about the MFC (C. albicans [5]; 24 h, read-out: MFC C. albicans R03) of the same molecule?
**A.** > 200 µg/mL

**Q.** What about the MFC (C. albicans [5]; 24 h, read-out: MFC C. albicans R04) of the same molecule?
**A.** > 200 µg/mL

**Q.** And the MFC (C. albicans [5]; ATCC90028, 24 h, read-out: MFC C. albicans ATCC90028)?
**A.** > 200 µg/mL

**Q.** And the MFC (C. albicans [5]; SC5314, 24 h, read-out: MFC C. albicans SC5314)?
**A.** > 200 µg/mL

**Q.** What about the MFC (C. neoformans [6]; read-out: MFC C. neoformans H99) of the same molecule?
**A.** 6.3 µg/mL (≈ 20.6 µM)

**Q.** What about the MFC (C. neoformans [6]; read-out: MFC C. neoformans JEC21) of the same molecule?
**A.** 12.5 µg/mL (≈ 40.8 µM)

**Q.** And the MFC (C. neoformans [6]; read-out: MFC C. neoformans MYA737)?
**A.** 6.3 µg/mL (≈ 20.6 µM)

**Q.** And the MIC50 (C. neoformans [7]; read-out: MIC50 (row marked fluconazole*) C. neoformans H99)?
**A.** 6.3 µg/mL (≈ 20.6 µM)

**Q.** What about the MIC50 (C. neoformans [7]; read-out: MIC50 (row marked fluconazole*) C. neoformans JEC21) of the same molecule?
**A.** 12.5 µg/mL (≈ 40.8 µM)

**Q.** And the MIC50 (C. neoformans [7]; read-out: MIC50 (row marked fluconazole*) C. neoformans MYA737)?
**A.** 6.3 µg/mL (≈ 20.6 µM)

**Q.** And the “Increase of MIC50 after 30 passages” value (C. albicans (R02 strain); C. albicans R02, continuous treatment with 0.5 × MIC50)?
**A.** eightfolds

**Q.** And the MIC50 (C. albicans (R02 strain); read-out: MIC50 after 30 passages)?
**A.** 1.6 µg/mL (≈ 5.22 µM)

**Q.** What about the MIC50 (C. albicans (R02 strain); read-out: MIC50 before passaging) of the same molecule?
**A.** 0.2 µg/mL (≈ 0.653 µM)

**Q.** Which “IC50 HUVEC” value [8] does the source give for poly(DL‐diaminopropionic acid) [PDAP10] here?
**A.** 675 µg/mL
